“Also recorded” adds a separate entry of the source. Bridges are numbered along the chain shown (N, C = ends). Where no end group is shown, it is not given here.

One assay has as its system C57BL6J male mice. Nature of the assay: Indirect calorimetry and telemetry in mice after injection into the preoptic area. It is filed as in vivo, mouse. To be noted: 2.5 nmol by direct injection into the POA. Here is the method:
C57BL6J male mice (3-4 months old, 25-30 g, 6 mice per group) were purchased from Harlan. […] Energy expenditure measures (VO2, VCO2 and heat formation ((3.815+1.232*RER)*VO2 (in liters)) were corrected for estimated effective metabolic mass per Kleiber's power function (Kleiber, 1947). Mice undergoing indirect calorimetry were acclimated to the respiratory chambers for 3-4 days before the onset of study. Data were recorded under ambient room temperature clamped at 25° C., beginning from the onset of the light cycle (12:12 hour light-dark cycle; lights on at 6:00 a.m.) for 3 days. Treatments were administered directly to the POA via an implanted cannula (anterior from bregma: 0.3 mm, midline, ventral: 3.8 mm, cannula 26 GA, 10 mm length) using an injector (33 GA, protruding 0.4 mm beyond the tip of the cannula, total length 10.4 mm) connected to plastic tubing and a microsyringe (10 μL) in a volume of 0.5 μL over a period of 5 minutes to allow diffusion. […]

The target in assay [1] is T1, human endothelin ETB receptor (Homo sapiens, UniProt P24530).
T1 construct: expressed in transfected cells; host or cells: CHO cells
T1 sequence (P24530 27-442): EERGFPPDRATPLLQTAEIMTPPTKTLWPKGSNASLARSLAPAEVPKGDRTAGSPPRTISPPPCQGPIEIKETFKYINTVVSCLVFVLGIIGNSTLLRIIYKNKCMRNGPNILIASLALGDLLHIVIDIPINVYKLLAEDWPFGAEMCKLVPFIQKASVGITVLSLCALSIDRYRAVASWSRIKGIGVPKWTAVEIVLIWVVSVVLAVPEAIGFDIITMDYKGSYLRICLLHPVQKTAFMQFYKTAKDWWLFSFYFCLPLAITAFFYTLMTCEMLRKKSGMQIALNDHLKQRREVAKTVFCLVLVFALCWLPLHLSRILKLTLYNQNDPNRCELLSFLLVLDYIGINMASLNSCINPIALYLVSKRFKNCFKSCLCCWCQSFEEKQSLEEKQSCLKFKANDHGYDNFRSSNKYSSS
Nature of the assay: Radioligand binding, human endothelin ETB receptor in transfected CHO cell membranes. The conditions noted are these: tested at a concentration of up to 3 μM (p>0.05). The method, then:
To evaluate the affinity of EDN3 97-140 for the agonist site of the human endothelin ETB receptor in transfected CHO cells, radioligand binding was used. […] Following incubation, the samples were filtered rapidly under vacuum through glass fiber filters (GF/B, Packard) presoaked with 0.1% BSA and rinsed several times with an ice-cold buffer containing 50 mM Tris-HCl and 150 mM NaCl using a 96-sample cell harvester (Unifilter, Packard). The filters were dried then counted for radioactivity in a scintillation counter (Topcount, Packard) using a scintillation cocktail (Microscint 0, Packard).

A further assay deals with H4IIE rat hepatoma cells. Nature of the assay: H4IIE glucose production in vitro. The conditions noted are these: 100 nM, 24 hours, mean of 3 independent experiments±SEM, p=0.01. Type of assay: cell-based. The method, then: Cell culture reagents were purchased from Invitrogen (Gathersburg, Md.) unless otherwise noted. GLUTag cells were obtained from Dr. Daniel Drucker and cultured in High Glucose DMEM medium supplemented with 100 U/mL penicillin, 100 μg/mL streptomycin, and 10% fetal calf serum at 10% CO2 at 37° C. H4IIE rat hepatoma cells were purchase from American Type Culture Collection (Manassas, Va.) and cultured in low glucose DMEM supplemented with 100 U/mL penicillin, 100 μg/mL streptomycin, 2 mM L-glutamine and 10% heat-inactivated fetal calf serum at 5% CO2 and 37° C.
H4IIE cells were plated at 120,000 cells per well into 96-well Poly-D-Lysine coated plates and treated using a modification of the protocol as previously reported (de Raemy-Schenk, 2006). Briefly, 4 hours after plating, growth medium was exchanged for glucose production medium (glucose-free DMEM, 2 mM sodium pyruvate, and 20 mM sodium lactate) for 18 hours and then cells were treated with EDN3 97-140 or vehicle in fresh glucose production medium. After 24 hours, media was collected and assayed for glucose using an Amplex Red Glucose/Glucose Oxidase Assay Kit purchased from Invitrogen (Gathersburg, Md.). Data was reported as a percent of vehicle to normalize across experiments. […]

The next assay deals with INS1 cells. The assay is described as follows: Glucose-stimulated insulin release from INS1 cells. Type of assay: cell-based. To be noted: 10 μM (data not shown).

On to “CTCFTYKDKECVYYCHLDIIWINTPEQTVPYGLSNYRESLRGKR-NH2 (disulfide 1-15, 3-11) [EDN3 97-140]”, for which, in the assay on C57BL6J male mice, the locomotor activity result was “transient spike of increased locomotor activity; also recorded: transient increase in locomotor activity”. In addition, in assay [1], the “binding to ETB receptor” value is on record as “failed to bind”. The “reduction of basal glucose production versus vehicle” value in the assay on H4IIE rat hepatoma cells amounted to 19.5±7.6%. Besides, in the assay with INS1 cells, the “modulation of glucose-stimulated insulin release from INS1 cells” value is “failed to modulate”.

The values above are taken from US20130345392A1, “EDN3-LIKE PEPTIDES AND USES THEREOF” (Pfizer Inc, priority 2011, published 2013).
